Assay results published in patent publication US11834433B2, “Compounds” (INFLAZOME LIMITED, priority 2018, dated 2023).
Where a name gives a salt, the structure may show the parent alone.

These compounds were tested on NLRP3 (assay: THP-1 cells pyroptosis assay (LPS + nigericin, resazurin read-out)). Conditions: Homo sapiens, 1 μg/ml LPS, 5 μM nigericin, NLRP3 inhibitory activity.
Format: cell-based
Method: THP-1 cells (ATCC #TIB-202) were grown in RPMI containing L-glutamine (Gibco #11835) supplemented with 1 mM sodium pyruvate (Sigma #S8636) and penicillin (100 units/ml)/streptomycin (0.1 mg/ml) (Sigma #P4333) in 10% Fetal Bovine Serum (FBS) (Sigma #F0804). The cells were routinely passaged and grown to confluency (˜10^6 cells/ml). On the day of the experiment, THP-1 cells were harvested and resuspended into RPMI medium (without FBS). The cells were then counted and viability (>90%) checked by Trypan blue (Sigma #T8154). Appropriate dilutions were made to give a concentration of 625,000 cells/ml. To this diluted cell solution was added LPS (Sigma #L4524) to give a 1 μg/ml Final Assay Concentration (FAC). 40 μl of the final preparation was aliquoted into each well of a 96-well plate. The plate thus prepared was used for compound screening. The following method step-by-step assay was followed for compound screening. • 1. Seed THP-1 cells (25,000 cells/well) containing 1.0 μg/ml LPS in 40 μl of RPMI medium (without FBS) in 96-well, black walled, clear bottom cell culture plates coated with poly-D-lysine (VWR #734-0317) • 2. Add 5 μl compound (8 points half-log dilution, with 10 μM top dose) or vehicle (DMSO 0.1% FAC) to the appropriate wells • 3. Incubate for 3 hrs at 37° C., 5% CO2 • 4. Add 5 μl nigericin (Sigma #N7143) (FAC 5 μM) to all wells • 5. Incubate for 1 hr at 37° C., 5% CO2 • 6. At the end of the incubation period, spin plates at 300×g for 3 mins and remove supernatant • 7. Then add 50 μl of resazurin (Sigma #R7017) (FAC 100 μM resazurin in RPMI medium without FBS) and incubate plates for a further 1-2 hrs at 37° C. and 5% CO2 • 8. Plates were read in an Envision reader at Ex 560 nm and Em 590 nm • 9. IC50 data is fitted to a non-linear regression equation (log inhibitor vs response-variable slope 4-parameters) [table]

IC50 [µM] | Structure (SMILES)
≤ 5 | CC(C)c1cc(F)cc(C(C)C)c1CC(=O)NS(=O)(=O)c1ccn(C[C@@H](C)O)n1 [Example 6, (R)-2-(4-Fluoro-2,6-diisopropylphenyl)-N-((1-(2-hydroxypropyl)-1H-pyrazol-3-yl)sulfonyl)acetamide]
≤ 5 | COC(C)(C)Cn1ccc(S(=O)(=O)NC(=O)Cc2c3c(cc4c2CCC4)CCC3)n1 [Example 4, 2-(1,2,3,5,6,7-Hexahydro-s-indacen-4-yl)-N-((1-(2-methoxy-2-methylpropyl)-1H-pyrazol-3-yl)sulfonyl)acetamide]
≤ 5 | COc1cc(-c2cc(F)cc(C(C)C)c2CC(=O)NS(=O)(=O)c2ccn(C(C)(C)CO)n2)ccn1 [Example 9]
≤ 5 | COCC(C)(C)n1ccc(S(=O)(=O)NC(=O)Cc2c(-c3ccnc(OC)c3)cc(F)cc2C(C)C)n1 [Example 8]
≤ 5 | COC1(c2cc(S(=O)(=O)NC(=O)Cc3c4c(cc5c3CCC5)CCC4)nn2C(C)C)COC1 [Example 1, 2-(1,2,3,5,6,7-Hexahydro-s-indacen-4-yl)-N-((1-isopropyl-5-(3-methoxyoxetan-3-yl)-1H-pyrazol-3-yl)sulfonyl)acetamide]
≤ 5 | COC1(c2cc(S(=O)(=O)NC(=O)Cc3c4c(cc5c3CCC5)CCC4)nn2C2CC2)COC1 [Example 3, N-((1-Cyclopropyl-5-(3-methoxyoxetan-3-yl)-1H-pyrazol-3-yl)sulfonyl)-2-(1,2,3,5,6,7-hexahydro-s-indacen-4-yl)acetamide]
≤ 5 | COC1(c2cc(S(=O)(=O)NC(=O)Cc3c(C(C)C)cc(F)cc3C(C)C)nn2C(C)C)COC1 [Example 5, 2-(4-Fluoro-2,6-diisopropylphenyl)-N-((1-isopropyl-5-(3-methoxyoxetan-3-yl)-1H-pyrazol-3-yl)sulfonyl)acetamide]
≤ 5 | COc1cc(-c2cc(F)cc(C(C)C)c2CC(=O)NS(=O)(=O)c2cnn(CC(C)(C)O)c2)ccn1 [Example 7]

Structure (SMILES) | IC50 [µM]
COC1(c2cc(S(=O)(=O)NC(=O)Cc3c(-c4ccnc(C#N)c4)ccc4c3CCC4)nn2C(C)C)COC1 [Example 2, 2-(5-(2-Cyanopyridin-4-yl)-2,3-dihydro-1H-inden-4-yl)-N-((1-isopropyl-5-(3-methoxyoxetan-3-yl)-1H-pyrazol-3-yl)sulfonyl)acetamide, potassium Salt] | ≤ 10
